Key:
human GR [1] = target: T1, human GR (Homo sapiens, UniProt P04150); assay: Trans-Activation Modulation of Glucocorticoid Receptor (GRAMMER), MMTV-LUC reporter, agonist mode; type: cell-based; design: endogenous in cells; conditions: maximum activity; for Emax: A549, A549 cells, read-out: Transactivation A549 Cells GRAMMER Emax
T1 sequence (P04150 1-777): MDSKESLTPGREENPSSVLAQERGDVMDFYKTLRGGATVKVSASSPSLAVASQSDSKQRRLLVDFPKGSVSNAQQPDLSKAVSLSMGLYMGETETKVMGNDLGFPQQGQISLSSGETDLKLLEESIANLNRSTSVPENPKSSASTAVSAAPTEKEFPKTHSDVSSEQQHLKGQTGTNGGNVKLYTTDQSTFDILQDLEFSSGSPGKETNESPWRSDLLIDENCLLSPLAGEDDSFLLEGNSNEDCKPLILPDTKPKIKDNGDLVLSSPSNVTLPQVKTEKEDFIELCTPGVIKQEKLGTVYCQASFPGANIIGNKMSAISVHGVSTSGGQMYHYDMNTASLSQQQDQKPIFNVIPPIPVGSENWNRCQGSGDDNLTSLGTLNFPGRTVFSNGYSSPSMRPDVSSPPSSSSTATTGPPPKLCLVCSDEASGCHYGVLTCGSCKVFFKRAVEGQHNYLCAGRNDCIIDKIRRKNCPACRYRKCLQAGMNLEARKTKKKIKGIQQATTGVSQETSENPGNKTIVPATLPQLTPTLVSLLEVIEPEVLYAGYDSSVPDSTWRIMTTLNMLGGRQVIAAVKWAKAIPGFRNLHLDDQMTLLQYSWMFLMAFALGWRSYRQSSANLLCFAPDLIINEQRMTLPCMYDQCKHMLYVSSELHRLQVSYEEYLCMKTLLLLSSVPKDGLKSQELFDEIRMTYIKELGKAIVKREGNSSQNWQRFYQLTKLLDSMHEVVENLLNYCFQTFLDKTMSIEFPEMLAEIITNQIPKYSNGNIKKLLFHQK
From the text: This assay assesses the ability of test compounds to control transcription from the MMTV-LUC reporter gene in lung adenocarcinoma A549 cells or MDA-MB-453 cells, a human breast cancer cell line that naturally expresses the human GR. The assay measures induction of a modified MMTV LTR/promoter linked to the LUC reporter gene.
The routine transient assay consists of plating 7,000-25,000 cells/well of a white, clear-bottom 96-well plate. Alternatively, 384-well plates can be used at a cell concentration of 10,000/well. The media that the cells are plated in is “exponential growth medium” which consists of phenol red-free RPMI1640 containing 10% FBS, 4 mM L-glutamine, 20 mM HEPES, 10 ug/mL human insulin, and 20 ug/mL gentamicin. Incubator conditions are 37° C. and 5% CO2. The transfection is done in batch mode. The cells are trypsinized and counted to the right cell number in the proper amount of fresh media. It is then gently mixed with the FuGene6/DNA mix and plated onto the 96 or 384-well plate, all the wells receive 100 uL or 40 uL, respectively, of medium+lipid/DNA complex then incubated 37° C. overnight. The transfection cocktail consists of serum-free OptiMEM, FuGene6 reagent and DNA. The manufacturer's (Roche Biochemical) protocol for cocktail setup is as follows: The lipid to DNA ratio is approximately 2.5:1 and the incubation time is 20 min at room temperature. Sixteen to 24 hours after transfection, the cells are treated with dexamethasone to a final concentration of 10 nM as well as the compound of interest, such that final DMSO (vehicle) concentration is equal to or less than 1%. Each plate also contains samples that are treated with 10 nM dexamethasone alone, which is used as the 100% activity control. The cells are exposed to the compounds for 24 hours. After 24 hours, the cells are lysed by a Promega cell culture lysis buffer for approximately 30 min and then the luciferase activity in the extracts is assayed in the 96-well format luminometer. In 384-well format, Steady-Glo (Promega) or Steady-Lite (PerkinElmer) can be used by adding an equal volume of reagent to the media present in each well. Activity induced by 10 nM dexamethasone alone is set at 100% activity. Antagonist activity is calculated by determining the decrease in dexamethasone-induced activity in response to compound treatment relative to samples that were treated with dexamethasone alone. […] This transactivation assay can be performed in an agonist and antagonist mode to identify these different activities.

human GR [2] = target: T1, human GR; assay: Transrepression Assay (GITAR), TNFα-β-lactamase reporter in U937 cells; type: cell-based; design: U937 cells contain an endogenous glucocorticoid receptor (GR); endogenous in cells; host or cells: U937 cells stably transfected with the TNF-alpha promoter/beta-lactamase reporter; conditions: for GITAR > GRAMM % SEP: GITAR Emax minus GRAMMER Emax
From the text: This assay assesses the ability of test compounds to control transcription from the TNFα-β-lactamase reporter gene in U937 cells, a human myelomonocytic leukemia cell line that naturally expresses the human GR. The assay measures compound dependent-repression of the TNFa promoter linked to a reporter gene.
The human U937 cells that had been stablely transfected with the TNF-α promoter driving β-lactamase are used for this assay. U937 cells contain an endogenous glucocorticoid receptor (GR). Cells are maintained in RPMI 1640 Growth medium (Gibco Cat#11875-093) containing 25 mM HEPES, 10% FBS, 2 mM L-Glutamine, 1 mM Sodium pyruvate, 25 μg/ml Gentamicin (Gibco Cat#15710-064), 1:1000 2-Mercaptoethanol (Gibco Cat#21985-023) and 0.8 mg/ml G418 (Gibco Cat#10131-027). The density of the cells in the flask needs to be about 1×10^6−3×10^6/ml at the time of harvest. Usually, the cells are split to 1.2˜1.4×10^5/ml (1:10) 3 days prior to the assay. 50,000 cells/well are plated in 96 well black-walled plates the day of assay. Test compounds are added 10 μL/well, and cells are incubated at 37° C. for 30˜45 min. For assaying compounds, first dilute 1:10 in DMSO to make 1 mM, then further dilute 1:100 in medium to make 10× stock prior to adding to the cells. Add 50 ng/mlPMA (Sigma, cat# P8139) 10 μL/well to a final concentration 5 ng/ml, and 1 μg/ml LPS (Sigma, cat# L4130) 10 μL/well to a final concentration 100 ng/ml. Incubate cells at 37° C. overnight for ˜18 hr. PMA is stored frozen as 100 μg/ml stock in DMSO. Dilute 1:10 in DMSO for a working stock of 10 μg/ml and store at −20 C. For assaying, dilute the 10 μg/ml working stock 1:200 in medium to make a 10× solution (50 ng/ml). Store frozen LPS at 1 mg/ml in PBS, dilute 1:1000 in medium to make 10× (1 μg/ml) for the assay. Add 6× loading buffer (CCF2-AM) 20 μL/well, and incubate at room temperature for 70˜90 min. […] The activity repressed by 100 nM dexamethasone alone is set as 100% activity.

[3] = U-937, U937 cells, maximum activity, read-out: Transrepression U937 Cells GITAR Emax
[4] = U-937, activity repressed by 100 nM dexamethasone alone set as 100%, read-out: maximal activity in the transrepression (GITAR) assay

Which Emax (human GR [1]) does the source give for `C[C@]12Cc3cnn(-c4ccc(F)cc4)c3C=C1CC[C@@H]2CN(CC1CC1)S(=O)(=O)c1ccccc1Cl` [Example 12, 2-chloro-N-(cyclopropylmethyl)-N-{[(4αR,5S)-1-(4-fluorophenyl)-4α-methyl-1,4,4α,5,6,7-hexahydrocyclopenta[f]indazol-5-yl]methyl}benzenesulfonamide] here?
The Emax was 34.4%.

And the “GITAR > GRAMM % SEP” value (human GR [2])?
Its value is 29.8%.

And the Emax (human GR [2]; [3])?
The Emax was 64.2%.

And the Emax (human GR [2]; [4])?
Its Emax is greater than 5%.

Which “Transactivation A549 Cells GRAMMER Emax” value (human GR [1]; A549 cells) does the source give for `C[C@]12Cc3cnn(-c4ccc(F)cc4)c3C=C1CC[C@@H]2CN(CC1CC1)S(=O)(=O)c1ccccc1Cl` [Example 22, 2-chloro-N-(cyclopropylmethyl)-N-{[(4αR,5S)-1-(4-fluorophenyl)-4α-methyl-1,4,4α,5,6,7-hexahydrocyclopenta[f]indazol-5-yl]methyl}benzenesulfonamide] here?
The value was 27.9%.

And the “GITAR > GRAMM % SEP” value (human GR [2])?
Its value is 43.9%.

What about the “Transrepression U937 Cells GITAR Emax” value (human GR [2]; U937 cells, maximum activity) of the same compound?
The value was 71.8%.

Which results are given for `C[C@]12Cc3cnn(-c4ccc(F)cc4)c3C=C1CC[C@@H]2CN(CCO)S(=O)(=O)c1ccc(-c2cnco2)s1` [Example 57, N-{[(4αR,5S)-1-(4-fluorophenyl)-4α-methyl-1,4,4α,5,6,7-hexahydrocyclopenta[f]indazol-5-yl]methyl}-N-(2-hydroxyethyl)-5-(1,3-oxazol-5-yl)thiophene-2-sulfonamide]?
Emax (human GR [1]): 2.7%; GITAR > GRAMM % SEP (human GR [2]): 21.0%; Emax (human GR [2]; [3]): 23.8%; Emax (human GR [2]; [4]): > 5%

How did the Emax (human GR [1]) turn out when `C[C@]12Cc3cnn(-c4ccc(F)cc4)c3C=C1CC[C@@H]2CN(CCO)S(=O)(=O)c1ccc(C#N)cc1` [Example 62, 4-cyano-N-{[(4αR,5S)-1-(4-fluorophenyl)-4α-methyl-1,4,4α,5,6,7-hexahydrocyclopenta[f]indazol-5-yl]methyl}-N-(2-hydroxyethyl)benezenesulfonamide] was run?
The Emax was 26%.

What about the “GITAR > GRAMM % SEP” value (human GR [2]) of the same compound?
The value was 42.5%.

And the Emax (human GR [2]; [3])?
The Emax was 68.5%.

And the Emax (human GR [2]; [4])?
Its Emax is greater than 5%.

`C[C@]12Cc3cnn(-c4ccc(F)cc4)c3C=C1CC[C@@H]2CN(CCc1ccccc1F)S(=O)(=O)C1CC1` [Example 101, N-[2-(2-fluorophenyl)ethyl]-N-{[(4αR,5S)-1-(4-fluorophenyl)-4α-methyl-1,4,4α,5,6,7-hexahydrocyclopenta[f]indazol-5-yl]methyl}cyclopropanesulfonamide] was tested. Which Emax (human GR [1]) did it give?
Its Emax is 62.8%.

What about the “GITAR > GRAMM % SEP” value (human GR [2]) of the same compound?
Its value is 32.6%.

What about the Emax (human GR [2]; [3]) of the same compound?
Its Emax is 95.4%.

And the Emax (human GR [2]; [4])?
Its Emax is greater than 5%.

Reference: patent US8299048B2, “Hexahydrocyclopentyl[f]indazole sulfonamides and derivatives thereof as selective glucocorticoid receptor modulators” (Merck Sharp & Dohme Corp., priority 2008, dated 2012)
